# Tests used:
# Assay in all cases: relative viability (nuclei count vs DMSO), 5 days (fraction); higher = more cells survive
# ABC-1 = system: ABC-1
# Method in brief: (§1)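 One day after seeding in 1536-well plates, lung cancer cell lines were dosed by pin tool. Dosing was either single-drug or a fixed anchor-drug dose plus five library-drug doses (not always all listed) in √10 steps. After 5 days, nuclei were stained in one fix-and-stain step and counted on 4× images, and relative viability is the nuclei count of treated wells over that of vehicle wells, given as the median of duplicate plates.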
# NCI-H358 = system: NCI-H358
# Method in brief: as §1
# EPLC-272H = system: EPLC-272H
# Method in brief: as §1
# NCI-H441 = system: NCI-H441
# Method in brief: as §1
# CAL-12T = system: CAL-12T
# Method in brief: as §1
# HCC-15 = system: HCC-15
# Method in brief: as §1
# NCI-H1993 = system: NCI-H1993
# Method in brief: as §1
# NCI-H2085 = system: NCI-H2085
# Method in brief: as §1
# NCI-H2126 = system: NCI-H2126
# Method in brief: as §1
# NCI-H1915 = system: NCI-H1915
# Method in brief: as §1
# UMC-11 = system: UMC-11
# Method in brief: as §1
# HOP-62 = system: HOP-62
# Method in brief: as §1
# COR-L 105 = system: COR-L 105
# Method in brief: as §1
# HCC-78 = system: HCC-78
# Method in brief: as §1
# NCI-H3122 = system: NCI-H3122
# Method in brief: as §1
# NCI-H1755 = system: NCI-H1755
# Method in brief: as §1
# NCI-H1666 = system: NCI-H1666
# Method in brief: as §1
# LXF-289 = system: LXF-289
# Method in brief: as §1
# NCI-H322M = system: NCI-H322M
# Method in brief: as §1
# EMC-BAC-2 = system: EMC-BAC-2
# Method in brief: as §1
# NCI-H2023 = system: NCI-H2023
# Method in brief: as §1
# NCI-H1975 = system: NCI-H1975
# Method in brief: as §1
smiles,measurement,setting,value
C=C1C(=O)O[C@@H](CCCCCCCC)[C@@H]1C(=O)O [C-75] + C[C@]1(O)C[C@@H](c2nc(-c3ccc4ccc(-c5ccccc5)nc4c3)c3c(N)nccn32)C1 [Linsitinib] (partner 1 µM),relative viability,ABC-1; first compound 0.08 µM,0.85
same,relative viability,ABC-1; first compound 0.253 µM,0.854
same,relative viability,ABC-1; first compound 0.8 µM,0.705
same,relative viability,ABC-1; first compound 2.53 µM,0.764
same,relative viability,ABC-1; first compound 8 µM,0.552
same,relative viability,NCI-H358; first compound 0.08 µM,0.734
same,relative viability,NCI-H358; first compound 0.253 µM,0.823
same,relative viability,NCI-H358; first compound 0.8 µM,0.7
same,relative viability,NCI-H358; first compound 2.53 µM,0.602
same,relative viability,NCI-H358; first compound 8 µM,0.737
same,relative viability,EPLC-272H; first compound 0.08 µM,1.05
same,relative viability,EPLC-272H; first compound 0.253 µM,1.23
same,relative viability,EPLC-272H; first compound 0.8 µM,1.07
same,relative viability,EPLC-272H; first compound 2.53 µM,0.976
same,relative viability,EPLC-272H; first compound 8 µM,1.11
same,relative viability,NCI-H441; first compound 0.08 µM,0.476
same,relative viability,NCI-H441; first compound 0.253 µM,0.592
same,relative viability,NCI-H441; first compound 0.8 µM,0.373
same,relative viability,NCI-H441; first compound 2.53 µM,0.48
same,relative viability,NCI-H441; first compound 8 µM,0.442
same,relative viability,CAL-12T; first compound 0.08 µM,0.814
same,relative viability,CAL-12T; first compound 0.253 µM,1.02
same,relative viability,CAL-12T; first compound 0.8 µM,0.751
same,relative viability,CAL-12T; first compound 2.53 µM,0.701
same,relative viability,CAL-12T; first compound 8 µM,0.792
same,relative viability,HCC-15; first compound 0.08 µM,0.926
same,relative viability,HCC-15; first compound 0.253 µM,0.978
same,relative viability,HCC-15; first compound 0.8 µM,0.924
same,relative viability,HCC-15; first compound 2.53 µM,0.847
same,relative viability,HCC-15; first compound 8 µM,0.902
same,relative viability,NCI-H1993; first compound 0.08 µM,0.705
same,relative viability,NCI-H1993; first compound 0.253 µM,0.773
same,relative viability,NCI-H1993; first compound 0.8 µM,0.751
same,relative viability,NCI-H1993; first compound 2.53 µM,0.744
same,relative viability,NCI-H1993; first compound 8 µM,0.763
same,relative viability,NCI-H2085; first compound 0.08 µM,0.935
same,relative viability,NCI-H2085; first compound 0.253 µM,0.801
same,relative viability,NCI-H2085; first compound 0.8 µM,0.88
same,relative viability,NCI-H2085; first compound 2.53 µM,0.806
same,relative viability,NCI-H2085; first compound 8 µM,0.792
same,relative viability,NCI-H2126; first compound 0.08 µM,0.698
same,relative viability,NCI-H2126; first compound 0.253 µM,0.783
same,relative viability,NCI-H2126; first compound 0.8 µM,0.703
same,relative viability,NCI-H2126; first compound 2.53 µM,0.683
same,relative viability,NCI-H2126; first compound 8 µM,0.711
same,relative viability,NCI-H1915; first compound 0.08 µM,1.2
same,relative viability,NCI-H1915; first compound 0.253 µM,1.17
same,relative viability,NCI-H1915; first compound 0.8 µM,0.993
same,relative viability,NCI-H1915; first compound 2.53 µM,1.05
same,relative viability,NCI-H1915; first compound 8 µM,1.07
same,relative viability,UMC-11; first compound 0.08 µM,0.91
same,relative viability,UMC-11; first compound 0.253 µM,1.09
same,relative viability,UMC-11; first compound 0.8 µM,1.01
same,relative viability,UMC-11; first compound 2.53 µM,0.821
same,relative viability,UMC-11; first compound 8 µM,0.891
same,relative viability,HOP-62; first compound 0.08 µM,0.944
same,relative viability,HOP-62; first compound 0.253 µM,0.894
same,relative viability,HOP-62; first compound 0.8 µM,0.841
same,relative viability,HOP-62; first compound 2.53 µM,0.843
same,relative viability,HOP-62; first compound 8 µM,0.875
same,relative viability,COR-L 105; first compound 0.08 µM,0.993
same,relative viability,COR-L 105; first compound 0.253 µM,0.928
same,relative viability,COR-L 105; first compound 0.8 µM,0.89
same,relative viability,COR-L 105; first compound 2.53 µM,0.946
same,relative viability,COR-L 105; first compound 8 µM,0.886
same,relative viability,HCC-78; first compound 0.08 µM,0.642
same,relative viability,HCC-78; first compound 0.253 µM,0.443
same,relative viability,HCC-78; first compound 0.8 µM,0.493
same,relative viability,HCC-78; first compound 2.53 µM,0.437
same,relative viability,HCC-78; first compound 8 µM,0.522
same,relative viability,NCI-H3122; first compound 0.08 µM,1.02
same,relative viability,NCI-H3122; first compound 0.253 µM,1.06
same,relative viability,NCI-H3122; first compound 0.8 µM,1.04
same,relative viability,NCI-H3122; first compound 8 µM,1.1
same,relative viability,NCI-H1755; first compound 0.08 µM,0.946
same,relative viability,NCI-H1755; first compound 0.253 µM,0.887
same,relative viability,NCI-H1755; first compound 0.8 µM,0.98
same,relative viability,NCI-H1755; first compound 2.53 µM,0.775
same,relative viability,NCI-H1755; first compound 8 µM,1.01
same,relative viability,NCI-H1666; first compound 0.08 µM,0.79
same,relative viability,NCI-H1666; first compound 0.253 µM,1.01
same,relative viability,NCI-H1666; first compound 0.8 µM,0.816
same,relative viability,NCI-H1666; first compound 2.53 µM,0.858
same,relative viability,NCI-H1666; first compound 8 µM,0.644
same,relative viability,LXF-289; first compound 0.08 µM,0.925
same,relative viability,LXF-289; first compound 0.253 µM,0.979
same,relative viability,LXF-289; first compound 0.8 µM,0.953
same,relative viability,LXF-289; first compound 2.53 µM,0.94
same,relative viability,LXF-289; first compound 8 µM,0.966
same,relative viability,NCI-H322M; first compound 0.08 µM,0.887
same,relative viability,NCI-H322M; first compound 0.253 µM,1.05
same,relative viability,NCI-H322M; first compound 0.8 µM,0.999
same,relative viability,NCI-H322M; first compound 2.53 µM,0.816
same,relative viability,NCI-H322M; first compound 8 µM,1.08
same,relative viability,EMC-BAC-2; first compound 0.08 µM,0.791
same,relative viability,EMC-BAC-2; first compound 0.253 µM,0.754
same,relative viability,EMC-BAC-2; first compound 0.8 µM,0.831
same,relative viability,EMC-BAC-2; first compound 2.53 µM,0.761
same,relative viability,EMC-BAC-2; first compound 8 µM,0.831
same,relative viability,NCI-H2023; first compound 0.08 µM,0.701
same,relative viability,NCI-H2023; first compound 0.253 µM,0.824
same,relative viability,NCI-H2023; first compound 0.8 µM,0.473
same,relative viability,NCI-H2023; first compound 2.53 µM,0.658
same,relative viability,NCI-H2023; first compound 8 µM,0.753
same,relative viability,NCI-H1975; first compound 0.08 µM,0.958
same,relative viability,NCI-H1975; first compound 0.253 µM,1.02
same,relative viability,NCI-H1975; first compound 0.8 µM,0.945
same,relative viability,NCI-H1975; first compound 2.53 µM,0.897
same,relative viability,NCI-H1975; first compound 8 µM,0.898

# From the supplement of paper PMC10307832
